Results from the CheMixHub viscosity set.
± gives the uncertainty stated by the source.

Assay: xn = mol fraction of the nth substance listed

CCC(=O)[O-].CC[N+]1(C)CCOCC1 + O
viscosity [mPa·s], 100 kPa
Conditions | x1 = 0.0672 | x1 = 0.1305 | x1 = 0.2131 | x1 = 0.2851 | x1 = 0.4005 | x1 = 0.5397 | x1 = 0.6231 | x1 = 0.7436
298.15 K | 4.98 ± 0.52 | 16.4 ± 1.7 | 50.3 ± 5.1 | 98.7 ± 10 | 318 ± 38 | 1237 ± 180 | 2366 ± 370 | –
303.15 K | 4.23 ± 0.43 | 13.2 ± 1.3 | 38.8 ± 3.9 | 74.6 ± 7.6 | 223 ± 25 | 796 ± 110 | 1660 ± 250 | –
308.15 K | 3.64 ± 0.37 | 11.2 ± 1.1 | 30.6 ± 3.1 | 57.2 ± 5.8 | 160 ± 17 | 530 ± 66 | 1149 ± 160 | –
313.15 K | 3.16 ± 0.32 | 9.32 ± 0.94 | 24.5 ± 2.5 | 44.6 ± 4.5 | 119 ± 12 | 366 ± 43 | 786 ± 100 | 2582 ± 410
318.15 K | 2.76 ± 0.28 | 7.58 ± 0.76 | 20 ± 2 | 35.4 ± 3.6 | 89.3 ± 9.1 | 258 ± 29 | 543 ± 68 | 1792 ± 270
323.15 K | 2.44 ± 0.25 | 6.46 ± 0.65 | 16.5 ± 1.7 | 28.7 ± 2.9 | 69.1 ± 7 | 187 ± 20 | 372 ± 44 | 1137 ± 160

CCCCBr + c1ccccc1
101 kPa
Conditions | viscosity [mPa·s]
298.15 K, x1 = 0.066 | 0.588 ± 0.016
298.15 K, x1 = 0.1 | 0.583 ± 0.016
298.15 K, x1 = 0.134 | 0.574 ± 0.016
308.15 K, x1 = 0.066 | 0.518 ± 0.014
308.15 K, x1 = 0.1 | 0.515 ± 0.014
308.15 K, x1 = 0.134 | 0.51 ± 0.014
308.15 K, x2 = 0.094 | 0.5122 ± 0.0043
308.15 K, x2 = 0.2084 | 0.5022 ± 0.0041
308.15 K, x2 = 0.2997 | 0.4939 ± 0.0039
308.15 K, x2 = 0.395 | 0.4879 ± 0.0038
308.15 K, x2 = 0.5053 | 0.4828 ± 0.0037
308.15 K, x2 = 0.5954 | 0.4805 ± 0.0036
308.15 K, x2 = 0.6993 | 0.4823 ± 0.0035
308.15 K, x2 = 0.8012 | 0.4853 ± 0.0035
308.15 K, x2 = 0.9023 | 0.4943 ± 0.0035
318.15 K, x1 = 0.066 | 0.459 ± 0.012
318.15 K, x1 = 0.1 | 0.457 ± 0.012
318.15 K, x1 = 0.134 | 0.454 ± 0.012
323.15 K, x1 = 0.066 | 0.432 ± 0.012
323.15 K, x1 = 0.1 | 0.431 ± 0.012
323.15 K, x1 = 0.134 | 0.428 ± 0.012

CCCCNCCCC + CCCCCCO
viscosity [mPa·s], 101.33 kPa
Conditions | x1 = 0.1034 | x1 = 0.1705 | x1 = 0.2901 | x1 = 0.3817 | x1 = 0.5001 | x1 = 0.5958 | x1 = 0.6955 | x1 = 0.7942 | x1 = 0.9007
303.15 K | 3.304 ± 0.038 | 2.992 ± 0.034 | 2.495 ± 0.029 | 2.156 ± 0.025 | 1.776 ± 0.021 | 1.52 ± 0.018 | 1.277 ± 0.016 | 1.088 ± 0.014 | 0.9036 ± 0.012
313.15 K | 2.723 ± 0.031 | 2.473 ± 0.029 | 2.069 ± 0.024 | 1.792 ± 0.021 | 1.475 ± 0.018 | 1.265 ± 0.015 | 1.088 ± 0.014 | 0.9214 ± 0.012 | 0.7818 ± 0.01

CC(=O)OCC(C)C + CCc1ccccc1
viscosity [mPa·s], 101 kPa
Conditions | x1 = 0.0948 | x1 = 0.1767 | x1 = 0.2601 | x1 = 0.3586 | x1 = 0.4735 | x1 = 0.5727 | x1 = 0.7004 | x1 = 0.7989 | x1 = 0.8805 | x1 = 0.9463
303.15 K | 0.596 ± 0.011 | 0.597 ± 0.011 | 0.599 ± 0.011 | 0.602 ± 0.011 | 0.606 ± 0.011 | 0.61 ± 0.011 | 0.616 ± 0.011 | 0.623 ± 0.011 | 0.63 ± 0.011 | 0.635 ± 0.011
313.15 K | 0.527 ± 0.011 | 0.528 ± 0.011 | 0.529 ± 0.011 | 0.53 ± 0.011 | 0.534 ± 0.011 | 0.539 ± 0.011 | 0.545 ± 0.011 | 0.552 ± 0.011 | 0.559 ± 0.011 | 0.569 ± 0.011
